Consider three compounds from ChEMBL document CHEMBL1201862, “PubChem BioAssay data set” (2004).

Holding throughout (experiment): NCI anticancer screen, dose series, 48 h
In test [1] the test system is HCT-15.
Test [2] concerns CAKI-1.
Test [3] relates to IGROV-1.
Test [4] concerns PC-3.
Test [5] concerns SW-620.
Test [6] concerns SR.
The test system of test [7] is NCI-H522.
The subject of test [8] is UO-31.
Test [9] relates to DU-145.
Test [10] deals with HT-29.
The test system of test [11] is HOP-62.
Test [12] concerns COLO 205.
The subject of test [13] is OVCAR-4.
The subject of test [14] is HL-60.
The test system of test [15] is RPMI-8226.
The test system of test [16] is UACC-257.
The subject of test [17] is NCI-H23.
Test [18] concerns RXF 393.
Test [19] concerns 786-0.
Test [20] concerns M14.

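A five-concentration, 48-hour dose response in 96-well plates underlies each endpoint, interpolated linearly between surrounding concentrations. At the GI50, growth is halved.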 Activity calls are given as the source filed them. Rule as the data show it: active = GI50 up to about 1.1 µM and inactive = higher.

For the compound `O=c1[nH]nc(-c2ccc([N+](=O)[O-])cc2)[nH]1`, the GI50 in test [1] is > 100 µM; in test [2], > 100 µM (inactive); in test [3], > 100 µM (inactive); in test [4] it was > 100 µM (inactive); in test [5] it was > 100 µM (inactive); in [6], > 100 µM (inactive). The GI50 in [7], in [8], in [9], in [10], in test [11] and in test [12] was > 100 µM (inactive) throughout. In addition, the GI50 in [13], in test [14], in [15], in test [16], in test [17] and in test [18] was > 100 µM (inactive) each time. The GI50 in test [19] and in test [20] was > 100 µM (inactive) throughout.
On to `COc1cc(/C=C/C(=O)c2c([O-])on[n+]2-c2ccccc2)ccc1O`, for which the GI50 is 2.13 µM in test [1]; 3 µM (inactive) in test [2]; 2.86 µM (inactive) in test [3]; 6.58 µM (inactive) in [4]; 2.18 µM (inactive) in [5]; 1.53 µM (inactive) in test [6]. The GI50 in test [7] was 1.73 µM (inactive); in test [8] it was 3.25 µM (inactive); in [9], 2.34 µM (inactive); in [10], 2.37 µM (inactive); in test [11] it was 4.4 µM (inactive); in test [12], 12.1 µM (inactive). In addition, the GI50 is 1.9 µM (inactive) in test [13]; 0.853 µM (active) in test [14]; 1.77 µM (inactive) in test [15]; 3.87 µM (inactive) in [16]; 2.69 µM (inactive) in test [17]; 2 µM (inactive) in test [18]. For the same compound, the results for the GI50 in test [19] and in [20] were 2 µM (inactive) and 3.43 µM (inactive), respectively.
`CC(NNC(=O)c1cc[n+]([BH2-]C#N)cc1)c1cccc(C(F)(F)F)c1` (stereo not given): the GI50 in [1] was 68.5 µM; in test [2], > 100 µM (inactive); in [3] it was > 100 µM (inactive); in [4], 44 µM (inactive); in test [5] it was > 100 µM (inactive); in test [6], 52.1 µM (inactive). Besides, the GI50 in test [7] was 4.55 µM (inactive); in test [8], 42 µM (inactive); in test [9], > 100 µM (inactive); in test [10] it was 82.2 µM (inactive); in test [11], > 100 µM (inactive); in test [12], > 100 µM (inactive). Also, the GI50 in test [13] was > 100 µM (inactive); in [14], 34.5 µM (inactive); in test [15] it was 65.2 µM (inactive); in test [16], 68.2 µM (inactive); in [17], 27.4 µM (inactive); in test [18] it was 60.1 µM (inactive). Moreover, the GI50 is > 100 µM (inactive) in test [19] and 37.9 µM (inactive) in test [20].
